Laboratory results taken from US20050282707A1, “Pyridinylisoxazoles and their use as herbicides” (Bayer CropScience GmbH, priority 2004, published 2005).

Experiments:
Format in all cases: in vivo
Amaranthus retroflexus = experiment: Pre-emergence herbicidal action; conditions: 320 g of active ingredient or less per hectare, greenhouse, visual scoring after 3 to 4 weeks vs untreated controls
Description: (§1) Seeds of mono- and dicotyledonous weed plants are placed in sandy loam in cardboard pots and covered with soil. The compounds according to the invention, formulated as wettable powders or emulsifiable concentrates, are then applied, in the form of an aqueous suspension or emulsion, at a dosage of 320 g of active ingredient or less per hectare (converted), onto the surface of the covering earth, at an application rate of 600 to 800 l of water per ha (converted). Following treatment, the pots are placed in the greenhouse and maintained under good growth conditions for the weed plants. The visual scoring of the plant damage or emergence damage is made when the test plants have emerged, after an experimental period of 3 to 4 weeks, in comparison to untreated controls.

Setaria viridis = experiment: Pre-emergence herbicidal action; conditions: 320 g of active ingredient or less per hectare, greenhouse, visual scoring after 3 to 4 weeks vs untreated controls
Description: as §1

Sinapis arvensis = experiment: Pre-emergence herbicidal action; conditions: 320 g of active ingredient or less per hectare, greenhouse, visual scoring after 3 to 4 weeks vs untreated controls
Description: as §1

maize plants = experiment: Crop plant tolerance; conditions: application rate of 320 g, plants with two to three true leaves, greenhouse, visual scoring four to five weeks after application
Description: as §1
(§2) In further greenhouse experiments, seeds of crop plants and of monocotyledonous and dicotyledonous weed plants are placed in sandy loam, covered with soil and placed in the greenhouse until the plants have developed two to three true leaves. Then they are treated with the compounds of the formula (I) according to the invention, and compared with those disclosed in the prior art, as described above in section 1. Four to five weeks after the application and after having been left to stand in the greenhouse, visual scoring is performed. In this test, for example, the compounds of Nos: 1.44, 2.39 and 3.44, at an application rate of 320 g, lead to no damage to maize and wheat plants.

wheat plants = experiment: Crop plant tolerance; conditions: application rate of 320 g, plants with two to three true leaves, greenhouse, visual scoring four to five weeks after application
Description: as §1, §2

Structure (SMILES) | activity against Amaranthus retroflexus (Amaranthus retroflexus) | activity against Setaria viridis (Setaria viridis) | activity against Sinapis arvensis (Sinapis arvensis) | damage to maize plants (maize plants) | damage to wheat plants (wheat plants)
Cc1nc(Cl)ccc1-c1oncc1C(=O)C1CC1 [2.39] | 100% | 100% | 100% | no damage | no damage
CCS(=O)(=O)c1ccc(-c2oncc2C(=O)C2CC2)c(C)n1 [2.19] | 100% | 100% | 100% |  | 
Cc1nc(C(F)(F)F)ccc1C(=O)C(C#N)C(=O)C1CC1 (stereo not shown) [3.44] | 100% | 100% | 100% | no damage | no damage
Cc1nc(Cl)ccc1C(=O)c1cnoc1C1CC1 [1.39] | 100% | 100% | 100% |  | 
CSc1ccc(-c2oncc2C(=O)C2CC2)c(C)n1 [2.14] | 100% | 100% | 100% |  | 
CCS(=O)(=O)c1ccc(C(=O)c2cnoc2C2CC2)c(C)n1 [1.19] | 100% | 100% | 100% |  | 
